Measured values published in patent US20230374015A1, “INHIBITORS OF FIBROBLAST GROWTH FACTOR RECEPTOR KINASES” (Kinnate Biopharma Inc., priority 2020, published 2023).

Experiments:
FGFR2 [1] = target: T1, FGFR2 (Homo sapiens, UniProt P21802); test: FGFR2 Kinase Protocol - Condition 1 (Reaction Biology HotSpot radiometric kinase assay); assay type: biochemical; conditions: 20-min incubation of compound with kinase before ATP; poly[Glu:Tyr] (4:1) 0.2 mg/ml; ATP 100 micromolar; 2 hr room temperature
Procedure: Example 1: FGFR2 Kinase Protocol—Condition 1
The Reaction Biology HotSpot assay platform (http://www.reactionbiology.com) was used to measure kinase/inhibitor interactions as described previously (Anastassiadis et al., 2011). In brief, for each reaction, kinase and substrate were mixed in a buffer containing 20 mM HEPES (pH 7.5), 10 mM MgCl2, 1 mM EGTA, 0.02% Brij35, 0.02 mg/mL BSA, 0.1 mM Na3VO4, 2 mM DTT, and 1% DMSO. All compounds were in powder form and freshly solubilized in DMSO for assays. Compounds were then added to each reaction mixture via acoustic dispense using an ECHO 550 nanoliter dispenser. For Human FGFR2 wildtype testing, a peptide substrate, poly[Glu:Tyr] (4:1) was used to promote the reaction at a concentration of 0.2 mg/ml. For Human FGFR2 (V564F) testing, a peptide substrate, poly[Glu:Tyr] (4:1) was used to promote the reaction at a concentration of 0.2 mg/ml. ATP concentration for all assays was maintained at 100 micromolar. Compounds were tested in 10-dose IC50 mode with a 3-fold serial dilution. After a 20-min incubation, ATP (Sigma-Aldrich, St. Louis, MO 63178) and [g33P] ATP (specific activity 10 microCi/microliter) purchased at PerkinElmer (Boston, MA, 02118 Cat #BLU 003H250UC) were added at a final total concentration of […]. Reactions were carried out at room temperature for 2 hr and spotted onto P81 ion exchange cellulose chromatography paper (Reaction Biology). Filter paper was washed in 0.75% phosphoric acid to remove unincorporated ATP. The percent remaining kinase activity relative to a vehicle-containing (DMSO) kinase reaction was calculated for each kinase/inhibitor pair. IC50 values were calculated using Dotmatics Knowledge Solutions Studies curve fitting (Dotmatics, Bishops Stortford, UK, CM23).

FGFR2 [2] = target: T1, FGFR2; test: FGFR2 Kinase Protocol - Condition 2 (Reaction Biology HotSpot radiometric kinase assay, no preincubation); assay type: biochemical; conditions: poly[Glu:Tyr] (4:1) 0.2 mg/ml, ATP 100 microM, 2 hr room temperature
Method in brief: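 Ten-point, 3-fold compound dilutions were tested against wildtype or V564F FGFR2 with 100 µM ATP (33P-labelled), no preincubation, and 0.2 mg/ml poly[Glu:Tyr] (4:1) substrate. After 2 hr at room temperature, incorporation was read on P81 filter paper; IC50 fitted from activity remaining relative to vehicle.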

T1 sequence (P21802 22-821): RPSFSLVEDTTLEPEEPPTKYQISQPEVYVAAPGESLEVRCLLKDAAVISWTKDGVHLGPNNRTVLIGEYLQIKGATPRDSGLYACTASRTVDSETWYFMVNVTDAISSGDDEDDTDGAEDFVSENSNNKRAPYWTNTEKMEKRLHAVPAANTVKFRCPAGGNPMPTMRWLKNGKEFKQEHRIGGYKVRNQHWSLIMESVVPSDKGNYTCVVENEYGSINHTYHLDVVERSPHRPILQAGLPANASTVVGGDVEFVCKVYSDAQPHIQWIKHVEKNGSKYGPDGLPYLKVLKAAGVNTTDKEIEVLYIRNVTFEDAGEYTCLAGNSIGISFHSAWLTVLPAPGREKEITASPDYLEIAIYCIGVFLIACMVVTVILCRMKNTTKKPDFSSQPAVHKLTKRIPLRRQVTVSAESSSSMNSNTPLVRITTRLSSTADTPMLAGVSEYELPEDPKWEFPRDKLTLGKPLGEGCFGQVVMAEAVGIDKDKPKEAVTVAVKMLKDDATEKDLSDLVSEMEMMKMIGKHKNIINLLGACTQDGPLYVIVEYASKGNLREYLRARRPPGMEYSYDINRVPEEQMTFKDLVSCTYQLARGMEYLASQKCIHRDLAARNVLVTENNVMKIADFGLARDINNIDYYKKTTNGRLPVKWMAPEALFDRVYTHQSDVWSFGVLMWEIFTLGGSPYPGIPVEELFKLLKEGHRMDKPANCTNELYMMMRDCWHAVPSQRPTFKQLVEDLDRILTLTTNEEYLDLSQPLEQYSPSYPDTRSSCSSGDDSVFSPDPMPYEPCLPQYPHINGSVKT

Structure (SMILES) | IC50 (FGFR2 [1]) [nM] | IC50 (FGFR2 [2]) [nM]
C=CC(=O)N1C[C@@H](n2cc(C#Cc3ccc4nc(C)n(C)c4c3)c3c(N)nccc32)C[C@@H]1COC [Example 28] | 1000 to 10000 | 1000 to 10000
C=CC(=O)N1C[C@@H](n2cc(C#Cc3ccc4c(c3)ncn4C3CC3)c3c(N)nccc32)C[C@@H]1COC [Example 30, 1-((2R,4S)-4-(4-amino-3-((1-cyclopropyl-1H-benzo[d]imidazol-5-yl)ethynyl)-1H-pyrrolo[3,2-c]pyridin-1-yl)-2-(methoxymethyl)pyrrolidin-1-yl)prop-2-en-1-one] | ≤ 100 | 100 to 1000
C=CC(=O)N1C[C@@H](n2cc(C#Cc3ccc4c(c3)nc(C)n4C)c3c(N)nccc32)C[C@@H]1COC [Example 29, 1-((2R,4S)-4-(4-amino-3-((1,2-dimethyl-1H-benzo[d]imidazol-5-yl)ethynyl)-1H-pyrrolo[3,2-c]pyridin-1-yl)-2-(methoxymethyl)pyrrolidin-1-yl)prop-2-en-1-one] | ≤ 100 | 100 to 1000
C=CC(=O)N1C[C@@H](n2nc(C#Cc3ccc4c(c3)nc(C)n4C)c3c(N)ncnc32)C[C@@H]1COC [Example 3, 1-((2R,4S)-4-(4-amino-3-((1,2-dimethyl-1H-benzo[d]imidazol-5-yl)ethynyl)-1H-pyrazolo[3,4-d]pyrimidin-1-yl)-2-(methoxymethyl)pyrrolidin-1-yl)prop-2-en-1-one] | ≤ 100 | ≤ 100
C=CC(=O)N1C[C@@H](n2nc(C#Cc3ccc4[nH]nnc4c3)c3c(N)ncnc32)C[C@@H]1COC [Example 10, 1-((2R,4S)-4-(3-((1H-benzo[d][1,2,3]triazol-5-yl)ethynyl)-4-amino-1H-pyrazolo[3,4-d]pyrimidin-1-yl)-2-(methoxymethyl)pyrrolidin-1-yl)prop-2-en-1-one] | ≤ 100 | 
C=CC(=O)N1C[C@@H](n2nc(C#Cc3ccc4c(c3)ncn4CC)c3c(N)nccc32)C[C@@H]1COC [Example 23, 1-((2R,4S)-4-(4-amino-3-((1-ethyl-1H-benzo[d]imidazol-5-yl)ethynyl)-1H-pyrazolo[4,3-c]pyridin-1-yl)-2-(methoxymethyl)pyrrolidin-1-yl)prop-2-en-1-one] | ≤ 100 | 
C=CC(=O)N1C[C@@H](n2cc(C#Cc3ccc4c(c3)ncn4CC)c3c(N)nccc32)C[C@@H]1COC [Example 31, 1-((2R,4S)-4-(4-amino-3-((1-ethyl-1H-benzo[d]imidazol-5-yl)ethynyl)-1H-pyrrolo[3,2-c]pyridin-1-yl)-2-(methoxymethyl)pyrrolidin-1-yl)prop-2-en-1-one] | ≤ 100 | 100 to 1000
C=CC(=O)N1C[C@@H](n2nc(C#Cc3ccc4[nH]c(C)nc4c3)c3c(N)ncnc32)C[C@@H]1COC [Example 1, 1-((2R,4S)-4-(4-amino-3-((2-methyl-1H-benzo[d]imidazol-5-yl)ethynyl)-1H-pyrazolo[3,4-d]pyrimidin-1-yl)-2-(methoxymethyl)pyrrolidin-1-yl)prop-2-en-1-one] | ≤ 100 | 
C=CC(=O)N1C[C@@H](n2nc(C#Cc3ccc4c(c3)ncn4C)c3c(N)ncnc32)C[C@@H]1COC [Example 6, 1-((2R,4S)-4-(4-amino-3-((1-methyl-1H-benzo[d]imidazol-5-yl)ethynyl)-1H-pyrazolo[3,4-d]pyrimidin-1-yl)-2-(methoxymethyl)pyrrolidin-1-yl)prop-2-en-1-one] | ≤ 100 | 
C=CC(=O)N1C[C@@H](n2nc(C#Cc3c(F)cc4nc(C)n(C)c4c3F)c3c(N)ncnc32)C[C@@H]1COC [Example 13, 1-((2R,4S)-4-(4-amino-3-((5,7-difluoro-1,2-dimethyl-1H-benzo[d]imidazol-6-yl)ethynyl)-1H-pyrazolo[3,4-d]pyrimidin-1-yl)-2-(methoxymethyl)pyrrolidin-1-yl)prop-2-en-1-one] | ≤ 100 | 
C=CC(=O)N1C[C@@H](n2nc(C#Cc3c(F)cc4c(nc(C)n4C)c3F)c3c(N)ncnc32)C[C@@H]1COC [Example 12, 1-((2R,4S)-4-(4-amino-3-((4,6-difluoro-1,2-dimethyl-1H-benzo[d]imidazol-5-yl)ethynyl)-1H-pyrazolo[3,4-d]pyrimidin-1-yl)-2-(methoxymethyl)pyrrolidin-1-yl)prop-2-en-1-one] | ≤ 100 | ≤ 100
C=CC(=O)N1C[C@@H](n2nc(C#Cc3c(F)cc4c(nc(C)n4C)c3F)c3c(N)nccc32)C[C@@H]1COC [Example 16, 1-((2R,4S)-4-(4-amino-3-((4,6-difluoro-1,2-dimethyl-1H-benzo[d]imidazol-5-yl)ethynyl)-1H-pyrazolo[4,3-c]pyridin-1-yl)-2-(methoxymethyl)pyrrolidin-1-yl)prop-2-en-1-one] | ≤ 100 | ≤ 100
